What follows are compounds tested on Hep3B cells (hepatocellular carcinoma cell line) (assay: In vitro MTS cell viability assay (NCI-60 methodology), Hep3B). Conditions: Homo sapiens, 48 h, Table 1, MTS, 2 days drug incubation, 50% reduction vs time zero, read-out: Hep3B LC50.
Format: cell-based
Description: The cell viability measurement is based on the NCI-60 screening methodology (Nat. Rev. Cancer 6, 813-823, 2006). Briefly, cells are inoculated into 96-well plates at the optimal plating density. After 24 h, one of the two plates for Hep3B cell line is processed to determine a time zero cell viability (Tz) by MTS assay (Promega). Compounds are added over a 2-fold serial dilution to provide a total five drug concentrations plus DMSO control. Plates are incubated for a further 2 days, then measured cell viability by MTS assay [control growth (C) and test growth in the presence of drug at the five concentration levels (Ti)]. The LC50 is calculated from [(Ti−Tz)/Tz]×100=−50, which is the drug concentration resulting in a 50% reduction at the end of the drug treatment as compared to that at the beginning.
The compounds prepared in Tables 1-10 were tested in three in vitro assays, and the results are shown in Tables 1-10 for Hep3B and Table 11 for SW480 and NCI-H460 shown below. Herein, Hep3B refers to hepatocellular carcinoma cell line, SW480 refers to colon adenocarcinoma cell line, and NCI-H460 refers to human lung cancer cell line.
Shown in following Tables 1 to 10 are the structures and in vitro activities of exemplary compounds of formula (I).
Compound Cn1ncc2c(NC(=O)c3ccc([N+](=O)[O-])s3)nc(-c3ccc(C(C)(C)C)cc3)nc21 [Compound 1-1, N-(6-(4-(tert-butyl)phenyl)-1-methyl-1H-pyrazolo[3,4-d]pyrimidin-4-yl)-5-nitrothiophene-2-carboxamide] has an LC50 of 1800 nM.
Work on CCOc1ccc(-c2nc(NC(=O)c3ccc([N+](=O)[O-])s3)c3cnn(C)c3n2)cc1 [Compound 1-2, N-(6-(4-ethoxyphenyl)-1-methyl-1H-pyrazolo[3,4-d]pyrimidin-4-yl)-5-nitrothiophene-2-carboxamide] yielded an LC50 of 3240 nM.
Compound Cn1ncc2c(NC(=O)c3ccc([N+](=O)[O-])s3)nc(-c3cccc(OC(F)(F)F)c3)nc21 [Compound 1-6, N-(1-methyl-6-(3-(trifluoromethoxy)phenyl)-1H-pyrazolo[3,4-d]pyrimidin-4-yl)-5-nitrothiophene-2-carboxamide] has an LC50 of 1470 nM.
Work on Cn1ncc2c(NC(=O)c3ccc([N+](=O)[O-])s3)nc(-c3ccc(OC(C)(C)C)cc3)nc21 [Compound 1-7, N-(6-(4-(tert-butoxy)phenyl)-1-methyl-1H-pyrazolo[3,4-d]pyrimidin-4-yl)-5-nitrothiophene-2-carboxamide] yielded an LC50 of 1510 nM.
Cn1ncc2c(NC(=O)c3ccc([N+](=O)[O-])s3)nc(-c3ccccc3OC(F)(F)F)nc21 [Compound 1-8, N-(1-methyl-6-(2-(trifluoromethoxy)phenyl)-1H-pyrazolo[3,4-d]pyrimidin-4-yl)-5-nitrothiophene-2-carboxamide] was tested, and the LC50 was 2530 nM.
With CCC(C)(C)c1ccc(-c2nc(NC(=O)c3ccc([N+](=O)[O-])s3)c3cnn(C)c3n2)cc1 [Compound 1-9, N-(1-methyl-6-(4-(tert-pentyl)phenyl)-1H-pyrazolo[3,4-d]pyrimidin-4-yl)-5-nitrothiophene-2-carboxamide] the LC50 was 1500 nM.
With CN(C)c1ccc(-c2nc(NC(=O)c3ccc([N+](=O)[O-])s3)c3cnn(C)c3n2)cc1 [Compound 1-10, N-(6-(4-(dimethylamino)phenyl)-1-methyl-1H-pyrazolo[3,4-d]pyrimidin-4-yl)-5-nitrothiophene-2-carboxamide] the LC50 was greater than 5000 nM.
COc1ccc(/C=C/c2nc(NC(=O)c3ccc([N+](=O)[O-])s3)c3cnn(C)c3n2)cc1 [Compound 1-12, (E)-N-(6-(4-methoxystyryl)-1-methy-1H-pyrazolo[3,4-d]pyrimidin-4-yl)-5-nitrothiophene-2-carboxamide] showed an LC50 greater than 5000 nM.
Cn1ncc2c(NC(=O)c3ccc([N+](=O)[O-])s3)nc(C#Cc3ccc(C(F)(F)F)cc3)nc21 [Compound 1-13, N-(1-methyl-6-((4-(trifluoromethyl)phenyl)ethynyl)-1H-pyrazolo[3,4-d]pyrimidin-4-yl)-5-nitrothiophene-2-carboxamide] showed an LC50 of 2030 nM.
Cn1ncc2c(NC(=O)c3ccc([N+](=O)[O-])s3)nc(C#Cc3ccc(OC(F)(F)F)cc3)nc21 [Compound 1-14, N-(1-methyl-6-((4-(trifluoromethoxy)phenyl)ethynyl)-1H-pyrazolo[3,4,d]pyrimidin-4-yl)-5-nitrothiophene-2-carboxamide] was tested, and the LC50 was 1670 nM.
Work on Cn1ncc2c(NC(=O)c3ccc([N+](=O)[O-])s3)nc(Oc3cccc(C(F)(F)F)c3)nc21 [Compound 1-18, N-(1-methyl-6-(3-(trifluoromethyl)phenoxy)-1H-pyrazolo[3,4-d]pyrimidin-4-yl)-5-nitrothiophene-2-carboxamide] yielded an LC50 of 1990 nM.
With CC(C)n1ncc2c(NC(=O)c3ccc([N+](=O)[O-])s3)nc(-c3ccc(C(C)(C)C)cc3)nc21 [Compound 1-23, N-(6-(4-(tert-butyl)phenyl)-1-isopropyl-1H-pyrazolo[3,4-d]pyrimidin-4-yl)-5-nitrothiophene-2-carboxamide] the LC50 was 1570 nM.
Work on CC(C)n1ncc2c(NC(=O)c3ccc([N+](=O)[O-])s3)nc(-c3ccc(C(F)(F)F)cc3)nc21 [Compound 1-24, N-(1-isopropyl-6-(4-(trifluoromethyl)phenyl)-1H-pyrazolo[3,4-d]pyrimidin-4-yl)-5-nitrothiophene-2-carboxamide] yielded an LC50 of 900 nM.
Work on CC(C)(C)c1ccc(-c2nc(NC(=O)c3ccc([N+](=O)[O-])s3)c3cnn(C(C)(C)C)c3n2)cc1 [Compound 1-25, N-(1-(tert-butyl)-6-(4-(tert-butyl)phenyl)-1H-pyrazolo[3,4,d]pyrimidin-4-yl)-5-nitrothiophene-2-carboxamide] yielded an LC50 of 4110 nM.
Work on CC(C)(C)n1ncc2c(NC(=O)c3ccc([N+](=O)[O-])s3)nc(-c3ccc(C(F)(F)F)cc3)nc21 [Compound 1-26, N-(1-(tert-butyl)-6-(4-(trifluoromethyl)phenyl)-1H-pyrazolo[3,4,d]pyrimidin-4-yl)-5-nitrothiophene-2-carboxamide] yielded an LC50 of 790 nM.
With O=C(Nc1nc(-c2ccc(OC(F)(F)F)cc2)nc2c1cnn2CCO)c1ccc([N+](=O)[O-])s1 [Compound 1-28, N-(1-(2-hydroxyethyl)-6-(4-(trifluoromethoxy)phenyl)-1H-pyrazolo[3,4-d]pyrimidin-4-yl)-5-nitrothiophene-2-carboxamide] the LC50 was 4030 nM.
O=C(Nc1nc(-c2ccc(OC(F)(F)F)cc2)nc2c1cnn2CCN1CCOCC1)c1ccc([N+](=O)[O-])s1 [Compound 1-30, N-(1-(2-morpholinoethyl)-6-(4-(trifluoromethoxy)phenyl)-1H-pyrazolo[3,4-d]pyrimidin-4-yl)-5-nitrothiophene-2-carboxamide] was tested, and the LC50 was 1700 nM.
For CN(C)CCn1ncc2c(NC(=O)c3ccc([N+](=O)[O-])s3)nc(-c3ccc(OC(F)(F)F)cc3)nc21 [Compound 1-31, N-(1-(2-(dimethylamino)ethyl)-6-(4-(trifluoromethoxy)phenyl)-1H-pyrazolo[3,4-d]pyrimidin-4-yl)-5-nitrothiophene-2-carboxamide], the LC50 was 1860 nM.
In the case of O=C(Nc1nc(-c2ccc(OC(F)(F)F)cc2)nc2c1cnn2CCN1CCC(F)(F)C1)c1ccc([N+](=O)[O-])s1 [Compound 1-32, N-(1-(2-(3,3-difluoropyrrolidin-1-yl)ethyl)-6-(4-(trifluoromethoxy)phenyl)-1H-pyrazolo[3,4-d]pyrimidin-4-yl)-5-nitrothiophene-2-carboxamide], the LC50 is reported as 770 nM.

Same assay, conditions: Homo sapiens, 48 h, Table 2, MTS, 2 days drug incubation, 50% reduction vs time zero, read-out: Hep3B LC50
Cn1ncc2c(-c3ccc(C(C)(C)C)cc3)nc(NC(=O)c3ccc([N+](=O)[O-])s3)nc21 [Compound 2-1, N-(4-(4-(tert-but)phenyl)-1-methyl-1H-pyrazolo[3,4-d]pyrimidin-6-yl)-5-nitrothiophene-2-carboxamide] was tested, and the LC50 was 3130 nM.
In the case of CC(C)n1ncc2c(-c3ccc(OC(F)(F)F)cc3)nc(NC(=O)c3ccc([N+](=O)[O-])s3)nc21 [Compound 2-3, N-(1-isopropyl-4-(4-(trifluoromethoxy)phenyl)-1H-pyrazolo[3,4-d]pyrimidin-6-yl)-5-nitrothiophene-2-carboxamide], the LC50 is reported as 4020 nM.
Work on CC(C)(C)n1ncc2c(-c3ccc(OC(F)(F)F)cc3)nc(NC(=O)c3ccc([N+](=O)[O-])s3)nc21 [Compound 2-4, N-(1-(tert-butyl)-4-(4-(trifluoromethoxy)phenyl)-1H-pyrazolo[3,4,d]pyrimidin-6-yl)-5-nitrothiophene-2-carboxamide] yielded an LC50 of 3050 nM.
CC(C)(C)c1ccc(-c2nc(NC(=O)c3ccc([N+](=O)[O-])s3)nc3c2cnn3C(C)(C)C)cc1 [Compound 2-5, N-(1-(tert-butyl)-4-(4-(tert-butyl)phenyl)-1H-pyrazolo[3,4-d]pyrimidin-6-yl)-5-nitrothiophene-2-carboxamide] showed an LC50 of 12900 nM.

Source: patent US20240150356A1, “Pyrimidine amide compounds and use thereof” (ALPHALA CO., LTD., priority 2019, published 2024)
